The record followed here is patent publication US20230278972A1, “SUBSTITUTED HALOALKYL SULFONANILIDE HERBICIDES” (FMC Corporation, priority 2020, published 2023).

Common to all, as to type: in vivo
Experiment [1] has as its system wheat (Triticum aestivum). Put plainly: Test A1 preemergence, wheat. The method in brief:
(§1)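 Plants grown in pots of loam/sand mix; preemergence = soil-directed spray on seeded pots, postemergence = spray at 1–2 leaves, height 2–10 cm; test chemicals formulated in non-phytotoxic solvent with surfactant.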

For experiment [2], the system named is Ryegrass, Italian (Italian ryegrass, Lolium multiflorum). As to the kind of experiment: Test A1 preemergence, Ryegrass, Italian. The gist of the method: as §1
For experiment [3], the system named is rice (Oryza sativa). As to the kind of experiment: Test B1 flooded paddy test, rice. To be noted: 250 g ai/ha, Flood, applied to paddy water, 2-leaf stage, visually evaluated after 10 to 14 days. From the text:
A dash (-) response means no test result.

In experiment [4] the test system is Foxtail, Giant (giant foxtail, Setaria faberi). As to the kind of experiment: Test A1 preemergence, Foxtail, Giant. The gist of the method:
as §1

In experiment [5] the test system is corn (Zea mays). As to the kind of experiment: Test A1 postemergence, corn. To be noted: Postemergence. The method in brief:
as §1

Experiment [6] relates to horseweed (Erigeron canadensis). As to the kind of experiment: Test A1 postemergence, horseweed. To be noted: Postemergence. The method in brief:
(§2)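 Test compounds were formulated in a non-phytotoxic solvent mixture containing a surfactant. For preemergence, seeds sown in a loam soil–sand blend received a directed soil spray. For postemergence, potted plants in the same soil, 2 to 10 cm tall at the one- to two-leaf stage, were sprayed.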

For experiment [7], the system named is Foxtail, Giant (giant foxtail, Setaria faberi). Put plainly: Test A1 postemergence, Foxtail, Giant. To be noted: Postemergence. The method in brief: as §2
Experiment [8] relates to kochia (Bassia scoparia). As to the kind of experiment: Test A1 preemergence, kochia. The method in brief:
as §1

In experiment [9] the test system is soybean (Glycine max). As to the kind of experiment: Test A1 postemergence, soybean. To be noted: Postemergence. The method in brief: as §2
The mark [10] stands for this setting: 31 g ai/ha, 0 to 100 scale (0 no effect, 100 complete control).
The mark [11] stands for this setting: 125 g ai/ha, 0 to 100 scale, 0 no effect, 100 complete control.
The mark [12] stands for this setting: 31 g ai/ha, 0 to 100 scale (0 no effect, 100 complete control), 10 days.

Turning to `Cc1cc(C)c(N(COC(=O)OC(C)(C)C)S(=O)(=O)C(F)(F)F)cc1C1=NOC2CCCC12` (centres unmarked) [Compound 316], the “Plant response rating, Wheat” value in [1] (setting [10]) and in experiment [1] (setting [11]) was 0 throughout. Besides, the results for the “Plant response rating, Ryegrass, Italian” value in experiment [2] (setting [10]) and in experiment [2] (setting [11]) were 30 and 50, respectively. Moreover, the “Plant response rating, Rice (0 to 100 scale, 0 is no effect, 100 is complete control)” value in [3] is recorded as 0. Further, the “Plant response rating, Foxtail, Giant” value in [4] (setting [10]) amounted to 0; in experiment [4] (setting [11]) it was 30; in experiment [7] (setting [12]) it was 0; in [7] (125 g ai/ha, 0 to 100 scale), 0. For the same compound, the “Plant response rating, Corn” value in [5] (setting [12]) came to 0; in [5] (125 g ai/ha, 0 to 100 scale) it was 0. In addition, the “Plant response rating, Horseweed” value is recorded as 30 in [6] (setting [12]) and 40 in experiment [6] (125 g ai/ha, 0 to 100 scale). Moreover, the “Plant response rating, Kochia” value is listed as 0 in [8] (setting [10]) and 50 in [8] (setting [11]). The “Plant response rating, Soybean” value turned out to be 10 in experiment [9] (setting [12]) and 50 in experiment [9] (125 g ai/ha, 0 to 100 scale).
Turning to `Cc1cc(C)c(N(COC(=O)N(C)C)S(=O)(=O)C(F)(F)F)cc1C1=NOC2CCCC12` (centres unmarked) [Compound 317], the “Plant response rating, Wheat” value in experiment [1] (setting [10]) and in experiment [1] (setting [11]) was 0 in each case. For the same compound, the “Plant response rating, Ryegrass, Italian” value in [2] (setting [10]) and in experiment [2] (setting [11]) was 0 throughout. Besides, the “Plant response rating, Rice (0 to 100 scale, 0 is no effect, 100 is complete control)” value in [3] was determined as 0. For the same compound, the “Plant response rating, Foxtail, Giant” value in experiment [4] (setting [10]) was 0; in [4] (setting [11]), 0; in [7] (setting [12]), 0; in [7] (125 g ai/ha, 0 to 100 scale), 0. Further, the “Plant response rating, Corn” value in experiment [5] (setting [12]) came to 0; in experiment [5] (125 g ai/ha, 0 to 100 scale), 0. Also, the “Plant response rating, Horseweed” value in [6] (setting [12]) turned out to be 0; in experiment [6] (125 g ai/ha, 0 to 100 scale) it was 0. The “Plant response rating, Kochia” value in experiment [8] (setting [10]) and in experiment [8] (setting [11]) was 0 throughout. Further, the “Plant response rating, Soybean” value in [9] (setting [12]) was 0; in [9] (125 g ai/ha, 0 to 100 scale) it was 0.
Turning to `COCC1CC(c2cc(NS(=O)(=O)C(F)(F)F)c(C)cc2C)=NO1` (centres unmarked) [Compound 319], the “Plant response rating, Wheat” value in experiment [1] (setting [10]) came to 80; in [1] (setting [11]), 100. The “Plant response rating, Ryegrass, Italian” value was determined as 50 in experiment [2] (setting [10]) and 90 in experiment [2] (setting [11]). The “Plant response rating, Rice (0 to 100 scale, 0 is no effect, 100 is complete control)” value in [3] was found to be 30. In addition, the “Plant response rating, Foxtail, Giant” value in experiment [4] (setting [10]) turned out to be 90; in experiment [4] (setting [11]) it was 100; in [7] (setting [12]) it was 40; in [7] (125 g ai/ha, 0 to 100 scale), 90. The “Plant response rating, Corn” value in [5] (setting [12]) is listed as 10; in [5] (125 g ai/ha, 0 to 100 scale), 80. The “Plant response rating, Horseweed” value came out at 10 in [6] (setting [12]) and 40 in [6] (125 g ai/ha, 0 to 100 scale). Moreover, the “Plant response rating, Kochia” value in [8] (setting [10]) is reported as 0; in [8] (setting [11]), 40. The “Plant response rating, Soybean” value in experiment [9] (setting [12]) was 20; in experiment [9] (125 g ai/ha, 0 to 100 scale), 50.
As for `Cc1c(C(=O)N(C)C)cc(NS(=O)(=O)C(F)(F)F)c(Cl)c1F` [Compound 320], the “Plant response rating, Wheat” value in experiment [1] (setting [10]) amounted to 10; in [1] (setting [11]), 50. For the same compound, the “Plant response rating, Ryegrass, Italian” value in [2] (setting [10]) and in experiment [2] (setting [11]) was 90 in each case. Moreover, the “Plant response rating, Rice (0 to 100 scale, 0 is no effect, 100 is complete control)” value in experiment [3] is reported as 0. The “Plant response rating, Foxtail, Giant” value is given as 10 in experiment [4] (setting [10]); 100 in experiment [4] (setting [11]); 0 in experiment [7] (setting [12]); 40 in experiment [7] (125 g ai/ha, 0 to 100 scale). For the same compound, the “Plant response rating, Corn” value is given as 0 in experiment [5] (setting [12]) and 0 in [5] (125 g ai/ha, 0 to 100 scale). Also, the “Plant response rating, Horseweed” value worked out at 50 in experiment [6] (setting [12]) and 70 in experiment [6] (125 g ai/ha, 0 to 100 scale). In addition, the “Plant response rating, Kochia” value is 20 in [8] (setting [10]) and 50 in experiment [8] (setting [11]). In addition, the “Plant response rating, Soybean” value turned out to be 20 in experiment [9] (setting [12]) and 70 in experiment [9] (125 g ai/ha, 0 to 100 scale).
